In this data set the test system is CCRIS mutagenicity, Ames/micronucleus/aberration tests. The experiment in a line: CCRIS mutagenicity studies.
Setting [1] is: Test System: AMES SALMONELLA TYPHIMURIUM, Strain/Indicator: TA98, Metabolic Activation: NONE, Method: STANDARD PLATE.
[2] abbreviates: Test System: AMES SALMONELLA TYPHIMURIUM, Strain/Indicator: TA100, Metabolic Activation: NONE, Method: STANDARD PLATE.
The mark [3] stands for this setting: Test System: AMES SALMONELLA TYPHIMURIUM, Strain/Indicator: TA98, Metabolic Activation: NONE, Method: PREINCUBATION
Setting [4] is: Test System: AMES SALMONELLA TYPHIMURIUM, Strain/Indicator: TA100, Metabolic Activation: NONE, Method: PREINCUBATION

Calls of active or inactive are those of the source. The rule behind the calls is not given here.

With `CC(C)COP(=S)(OCC(C)C)SCCl`, the mutagenic call (Test System: AMES SALMONELLA TYPHIMURIUM, Strain/Indicator: TA98, Metabolic Activation: NONE) was “inactive; negative”; the mutagenic call under setting [1] is “inactive; negative”; the mutagenic call (Test System: AMES SALMONELLA TYPHIMURIUM, Strain/Indicator: TA98, Metabolic Activation: RAT, LIVER, S-9, SODIUM PHENOBARBITAL, Method: STANDARD PLATE) was “inactive; negative”; the mutagenic call (Test System: AMES SALMONELLA TYPHIMURIUM, Strain/Indicator: TA98, Metabolic Activation: S-9) is “inactive; negative”; the mutagenic call (Test System: AMES SALMONELLA TYPHIMURIUM, Strain/Indicator: TA100, Metabolic Activation: NONE) was “inactive; negative”; the mutagenic call under setting [2] was “inactive; negative”. Further, the mutagenic call was “inactive; negative” (Test System: AMES SALMONELLA TYPHIMURIUM, Strain/Indicator: TA100, Metabolic Activation: RAT, LIVER, S-9, SODIUM PHENOBARBITAL, Method: STANDARD PLATE); “inactive; negative” (Test System: AMES SALMONELLA TYPHIMURIUM, Strain/Indicator: TA100, Metabolic Activation: S-9); “inactive; negative” (Test System: E. COLI, Strain/Indicator: WP2, Metabolic Activation: NONE); “inactive; negative” (Test System: E. COLI, Strain/Indicator: WP2, Metabolic Activation: RAT, LIVER, S-9, SODIUM PHENOBARBITAL, Method: STANDARD PLATE); “inactive; negative” (Test System: E. COLI, Strain/Indicator: WP2, Metabolic Activation: S-9); “inactive; negative” (Test System: E. COLI, Strain/Indicator: WP2 UVRA, Metabolic Activation: NONE). Further, the mutagenic call (Test System: E. COLI, Strain/Indicator: WP2 UVRA, Metabolic Activation: RAT, LIVER, S-9, SODIUM PHENOBARBITAL, Method: STANDARD PLATE) is “inactive; negative” and the mutagenic call (Test System: E. COLI, Strain/Indicator: WP2 UVRA, Metabolic Activation: S-9) was “inactive; negative”.
In the case of `COP(=O)(OC)Oc1ccc([N+](=O)[O-])c(C)c1`, the mutagenic call was “inactive; negative” under setting [1]; “active; positive” (Test System: AMES SALMONELLA TYPHIMURIUM, Strain/Indicator: TA98, Metabolic Activation: RAT, LIVER, S-9, Method: STANDARD PLATE); “inactive; negative” under setting [2]; “inactive; negative” (Test System: AMES SALMONELLA TYPHIMURIUM, Strain/Indicator: TA100, Metabolic Activation: RAT, LIVER, S-9, Method: STANDARD PLATE).
Take `C=C1C[C@@]23CC[C@H]4[C@@](C)(CCC[C@@]4(C)C(=O)O[C@@H]4O[C@H](CO)[C@@H](O)[C@H](O)[C@H]4O)[C@@H]2CC[C@]1(O[C@@H]1O[C@H](CO)[C@@H](O)[C@H](O[C@@H]2O[C@H](CO)[C@@H](O)[C@H](O)[C@H]2O)[C@H]1O[C@@H]1O[C@H](CO)[C@@H](O)[C@H](O)[C@H]1O)C3`: the mutagenic call (Test System: AMES SALMONELLA TYPHIMURIUM, Strain/Indicator: TM677, Metabolic Activation: RAT, LIVER, S-9, AROCLOR 1254, Method: PREINCUBATION) is “inactive; negative”.
As for `CNc1ccc2ncc(-c3ccccc3)nc2c1C`, the mutagenic call is “inactive; negative” under setting [3]; “active; positive” (Test System: AMES SALMONELLA TYPHIMURIUM, Strain/Indicator: TA98, Metabolic Activation: RAT, LIVER, S-9, PCB, Method: PREINCUBATION); “inactive; negative” under setting [4]; “active; positive” (Test System: AMES SALMONELLA TYPHIMURIUM, Strain/Indicator: TA100, Metabolic Activation: RAT, LIVER, S-9, PCB, Method: PREINCUBATION).
Turning to `COC(=O)C12OC1(C)C(C)(O)OC2=O` (stereo not drawn), the mutagenic call was “inactive; negative” (Test System: AMES SALMONELLA TYPHIMURIUM, Strain/Indicator: TA98, Metabolic Activation: NONE, Method: DISK ASSAY); “inactive; negative” under setting [1]; “inactive; negative” (Test System: AMES SALMONELLA TYPHIMURIUM, Strain/Indicator: TA98, Metabolic Activation: RAT, LIVER, S-9, AROCLOR 1254, Method: DISK ASSAY); “active; positive” (Test System: AMES SALMONELLA TYPHIMURIUM, Strain/Indicator: TA98, Metabolic Activation: RAT, LIVER, S-9, AROCLOR 1254, Method: STANDARD PLATE); “inactive; negative” under setting [2]; “inactive; negative” (Test System: AMES SALMONELLA TYPHIMURIUM, Strain/Indicator: TA100, Metabolic Activation: RAT, LIVER, S-9, AROCLOR 1254, Method: STANDARD PLATE).
Turning to `COP(=S)(OC)SCC(=O)N(C)C=O`, the mutagenic call is “inactive; negative” (Test System: AMES SALMONELLA TYPHIMURIUM, Strain/Indicator: TA97A, Metabolic Activation: NONE, Method: STANDARD PLATE); “inactive; negative” (Test System: AMES SALMONELLA TYPHIMURIUM, Strain/Indicator: TA97A, Metabolic Activation: PLANT, HOMOGENATE, S-14, Method: STANDARD PLATE); “inactive; negative” (Test System: AMES SALMONELLA TYPHIMURIUM, Strain/Indicator: TA97A, Metabolic Activation: S-9, Method: STANDARD PLATE); “inactive; negative” under setting [1]; “inactive; negative” (Test System: AMES SALMONELLA TYPHIMURIUM, Strain/Indicator: TA98, Metabolic Activation: PLANT, HOMOGENATE, S-14, Method: STANDARD PLATE); “inactive; negative” (Test System: AMES SALMONELLA TYPHIMURIUM, Strain/Indicator: TA98, Metabolic Activation: S-9, Method: STANDARD PLATE). The mutagenic call runs as follows: under setting [2], “inactive; negative”; (Test System: AMES SALMONELLA TYPHIMURIUM, Strain/Indicator: TA100, Metabolic Activation: PLANT, HOMOGENATE, S-14, Method: STANDARD PLATE) “inactive; negative”; (Test System: AMES SALMONELLA TYPHIMURIUM, Strain/Indicator: TA100, Metabolic Activation: S-9, Method: STANDARD PLATE) “inactive; negative”; (Test System: AMES SALMONELLA TYPHIMURIUM, Strain/Indicator: TA1535, Metabolic Activation: NONE, Method: STANDARD PLATE) “inactive; negative”; (Test System: AMES SALMONELLA TYPHIMURIUM, Strain/Indicator: TA1535, Metabolic Activation: PLANT, HOMOGENATE, S-14, Method: STANDARD PLATE) “inactive; negative”; (Test System: AMES SALMONELLA TYPHIMURIUM, Strain/Indicator: TA1535, Metabolic Activation: S-9, Method: STANDARD PLATE) “inactive; negative”.
Turning to `Cc1c(N=O)cccc1[N+](=O)[O-]`, the mutagenic call was “inactive; negative” under setting [3]; “inactive; negative” (Test System: AMES SALMONELLA TYPHIMURIUM, Strain/Indicator: TA98, Metabolic Activation: RAT, LIVER, S-9, PHENOBARBITAL AND 5,6-BENZOFLAVONE, Method: PREINCUBATION); “inactive; negative” under setting [4]; “inactive; negative” (Test System: AMES SALMONELLA TYPHIMURIUM, Strain/Indicator: TA100, Metabolic Activation: RAT, LIVER, S-9, PHENOBARBITAL AND 5,6-BENZOFLAVONE, Method: PREINCUBATION).
As for `O=[N+]([O-])c1ccc(Nc2ccc(Cl)cc2)cc1`, the mutagenic call runs as follows: under setting [3], “inactive; negative”; (Test System: AMES SALMONELLA TYPHIMURIUM, Strain/Indicator: TA98, Metabolic Activation: RAT, LIVER, S-9, AROCLOR 1254, Method: PREINCUBATION) “active; positive”.
In the case of `N=C1C=CC2=C(S(=O)(=O)O)C=CC(=O)C2=C1NNc1ccc(-c2ccc(NNC3=C4C(=O)C=CC(S(=O)(=O)O)=C4C=CC3=N)cc2)cc1`, the mutagenic call (Test System: AMES SALMONELLA TYPHIMURIUM, Strain/Indicator: TA98, Metabolic Activation: HAMSTER, LIVER, S-9, Method: PREINCUBATION (PRIVAL METHOD)) was “active; positive”.
